# Reference: patent publication US10493125B2 (Merck Sharp & Dohme Corp., priority 2015, dated 2019)
# Where two headings read alike, the source gives them in different places. Non-standard residues stand in square brackets, D forms with d. Residues, ends and D or L forms follow the SMILES beside them. No end group written: not given here.
# Columns and labels:
# human GCGR = molecular target: T1, human GCGR (Homo sapiens, UniProt P47871); test: cAMP activity assay (HitHunter cAMP XS), cells expressing human GCGR; format: cell-based; conditions: for EC50: read-out: EC50 hGCGR; for Ratio: EC50 hGCGR divided by EC50 hGLP1
# T1 construct: expressed in transfected cells
# T1 sequence (P47871 26-477): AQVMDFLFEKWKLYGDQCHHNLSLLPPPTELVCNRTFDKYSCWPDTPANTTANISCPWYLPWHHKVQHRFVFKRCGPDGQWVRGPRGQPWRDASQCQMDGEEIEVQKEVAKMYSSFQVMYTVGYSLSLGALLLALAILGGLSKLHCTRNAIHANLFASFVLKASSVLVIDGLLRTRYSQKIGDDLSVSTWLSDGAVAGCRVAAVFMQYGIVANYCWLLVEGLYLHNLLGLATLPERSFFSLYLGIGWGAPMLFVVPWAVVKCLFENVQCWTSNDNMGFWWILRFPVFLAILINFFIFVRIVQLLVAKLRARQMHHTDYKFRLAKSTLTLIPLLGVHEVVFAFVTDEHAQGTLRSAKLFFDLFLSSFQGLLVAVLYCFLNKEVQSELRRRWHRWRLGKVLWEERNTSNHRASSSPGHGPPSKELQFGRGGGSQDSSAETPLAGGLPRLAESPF
# Method: (§1) Peptides were dissolved in 100% DMSO and serially diluted to generate 10 point titrations. The peptide solutions were then transferred into 384-well assay plates (150 nL/well). Assay ready frozen cells expressing human GLP1R or human GCGR were suspended in growth media consisting of DMEM medium (GIBCO), 10% FBS (GIBCO), 1×NEAA(GIBCO), 1× P/S (GIBCO), 10 ug/ml Blasticidin (GIBCO) and 200 μg/mL Hygromycin (GIBCO). […] The cell suspensions (15 μL) were then added to the assay plates containing the peptide solutions (30,000 cells/well for human GCGR; 10,000 cells/well for human GLP1R). The cells were incubated for 1 hour at room temperature in the dark. Production of cAMP was determined using HitHunter™ cAMPXS kits (DiscoverX) following manufacturer protocol. The plates were incubated for overnight at room temperature in the dark. Luminescence was measured using an EnVision Multilabel plate reader (Perkin Elmer). […] EC50 values were calculated using uses a 4 parameter logistic fit based on the Levenberg-Marquardt algorithm.
# human GLP1R = molecular target: T2, human GLP1R (Homo sapiens, UniProt P43220); test: cAMP activity assay (HitHunter cAMP XS), cells expressing human GLP1R; format: cell-based
# T2 construct: expressed in transfected cells
# T2 sequence (P43220 24-463): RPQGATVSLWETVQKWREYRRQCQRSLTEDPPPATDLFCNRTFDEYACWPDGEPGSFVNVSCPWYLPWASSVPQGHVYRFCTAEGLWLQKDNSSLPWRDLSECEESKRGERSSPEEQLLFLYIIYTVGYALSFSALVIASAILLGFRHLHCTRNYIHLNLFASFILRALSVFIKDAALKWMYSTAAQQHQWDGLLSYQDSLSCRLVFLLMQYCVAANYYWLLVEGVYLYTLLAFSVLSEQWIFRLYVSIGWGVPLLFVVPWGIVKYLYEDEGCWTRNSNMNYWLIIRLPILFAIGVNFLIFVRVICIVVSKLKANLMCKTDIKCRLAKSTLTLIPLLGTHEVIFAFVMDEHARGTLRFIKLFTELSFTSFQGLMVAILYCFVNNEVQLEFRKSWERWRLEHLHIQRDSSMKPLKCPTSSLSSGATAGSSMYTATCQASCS
# Method: as §1
# [1] = Table 2, cAMP production, read-out: EC50 hGLP1R
Molecule,"EC50 (human GCGR; Table 2, cAMP production) [nM]",EC50 (human GLP1R; [1]) [nM],Ratio (human GCGR; Table 7),"EC50 (human GCGR; Table 7, lipidated analogs vs parental peptides) [nM]","EC50 (human GLP1R; Table 7, lipidated analogs vs parental peptides, read-out: EC50 hGLP1) [nM]"
CC(C)C[C@H](NC(=O)[C@H](Cc1ccc(O)cc1)NC(=O)[C@H](CCCCN)NC(=O)[C@H](CO)NC(=O)[C@H](Cc1ccc(O)cc1)NC(=O)[C@H](CC(=O)O)NC(=O)[C@H](CO)NC(=O)[C@@H](NC(=O)[C@H](Cc1ccccc1)NC(=O)[C@@H](NC(=O)CNC(=O)[C@H](CCC(N)=O)NC(=O)[C@H](CO)NC(=O)[C@@H](N)Cc1c[nH]cn1)[C@@H](C)O)[C@@H](C)O)C(=O)N[C@@H](CC(=O)O)C(=O)N[C@@H](Cc1c[nH]c2ccccc12)C(=O)N[C@@H](CCCNC(=N)N)C(=O)N[C@@H](CCCNC(=N)N)C(=O)N[C@@H](C)C(=O)N[C@@H](CCC(N)=O)C(=O)N[C@@H](CC(=O)O)C(=O)N[C@@H](Cc1ccccc1)C(=O)N[C@H](C(=O)N[C@@H](CCC(N)=O)C(=O)N[C@@H](Cc1c[nH]c2ccccc12)C(=O)N[C@@H](CC(C)C)C(=O)N[C@@H](CC(C)C)C(=O)N[C@@H](CC(N)=O)C(=O)N[C@H](C(N)=O)[C@@H](C)O)C(C)C [PD23],0.03,0.05,,,
CC(C)C[C@H](NC(=O)[C@H](CC(C)C)NC(=O)[C@H](Cc1c[nH]c2ccccc12)NC(=O)[C@H](CCC(N)=O)NC(=O)[C@@H](NC(=O)[C@H](Cc1ccccc1)NC(=O)[C@H](CC(=O)O)NC(=O)[C@H](CCC(N)=O)NC(=O)[C@H](C)NC(=O)[C@H](CCCNC(=N)N)NC(=O)[C@H](CCCNC(=N)N)NC(=O)[C@H](CO)NC(=O)[C@H](CC(=O)O)NC(=O)[C@H](CC(C)C)NC(=O)[C@H](Cc1ccc(O)cc1)NC(=O)[C@H](CCCCN)NC(=O)[C@H](CO)NC(=O)[C@H](Cc1ccc(O)cc1)NC(=O)[C@H](CC(=O)O)NC(=O)[C@H](CO)NC(=O)[C@@H](NC(=O)[C@H](Cc1ccccc1)NC(=O)[C@@H](NC(=O)CNC(=O)[C@H](CCC(N)=O)NC(=O)[C@H](CO)NC(=O)[C@@H](N)Cc1c[nH]cn1)[C@@H](C)O)[C@@H](C)O)C(C)C)C(=O)N[C@@H](CC(=O)O)C(=O)N[C@@H](CO)C(N)=O [PD59],0.02,0.01,,,
H-HSQGTFTSDYSKYLDSIRAQDFVQWLMDT-NH2 [PD36],0.04,0.06,,,
H-HSQGTFFSDYSKYLDSRRAQDFVQWLLET-NH2 [PD58],0.03,0.02,,,
CSCC[C@H](NC(=O)[C@H](CC(=O)O)NC(=O)[C@H](CC(C)C)NC(=O)[C@H](Cc1ccc(O)cc1)NC(=O)[C@H](CCCCN)NC(=O)[C@H](CO)NC(=O)[C@H](Cc1ccc(O)cc1)NC(=O)[C@H](CC(=O)O)NC(=O)[C@H](CO)NC(=O)[C@@H](NC(=O)[C@H](Cc1ccccc1)NC(=O)[C@@H](NC(=O)CNC(=O)[C@H](CCC(N)=O)NC(=O)[C@H](CO)NC(=O)[C@@H](N)Cc1c[nH]cn1)[C@@H](C)O)[C@@H](C)O)C(=O)N[C@@H](CCC(N)=O)C(=O)N[C@@H](CCCNC(=N)N)C(=O)N[C@@H](C)C(=O)N[C@@H](Cc1c[nH]cn1)C(=O)N[C@@H](CC(=O)O)C(=O)N[C@@H](Cc1ccccc1)C(=O)N[C@H](C(=O)N[C@@H](CCC(N)=O)C(=O)N[C@@H](Cc1c[nH]c2ccccc12)C(=O)N[C@@H](CC(C)C)C(=O)N[C@@H](CCSC)C(=O)N[C@@H](CC(N)=O)C(=O)N[C@H](C(N)=O)[C@@H](C)O)C(C)C [PD55],0.01,0.01,,,
CC[C@H](C)[C@H](NC(=O)[C@H](CC(C)C)NC(=O)[C@H](Cc1c[nH]c2ccccc12)NC(=O)[C@H](CCC(N)=O)NC(=O)[C@@H](NC(=O)[C@H](Cc1ccccc1)NC(=O)[C@H](CC(=O)O)NC(=O)[C@H](CCC(N)=O)NC(=O)[C@H](C)NC(=O)[C@H](CCCNC(=N)N)NC(=O)[C@H](CCCNC(=N)N)NC(=O)[C@H](C)NC(=O)[C@H](CC(=O)O)NC(=O)[C@H](CC(C)C)NC(=O)[C@H](Cc1ccc(O)cc1)NC(=O)[C@H](CCCCN)NC(=O)[C@H](CO)NC(=O)[C@H](Cc1ccc(O)cc1)NC(=O)[C@H](CC(=O)O)NC(=O)[C@H](CO)NC(=O)[C@@H](NC(=O)[C@H](Cc1ccccc1)NC(=O)[C@@H](NC(=O)CNC(=O)[C@H](CCC(N)=O)NC(=O)[C@H](CO)NC(=O)[C@@H](N)Cc1c[nH]cn1)[C@@H](C)O)[C@@H](C)O)C(C)C)C(=O)N[C@@H](CCCNC(=N)N)C(=O)N[C@H](C(N)=O)[C@@H](C)O [PD25],0.04,0.02,,,
CSCC[C@H](NC(=O)[C@H](CC(C)C)NC(=O)[C@H](Cc1c[nH]c2ccccc12)NC(=O)[C@H](CCC(N)=O)NC(=O)[C@@H](NC(=O)[C@H](Cc1ccccc1)NC(=O)[C@H](CC(=O)O)NC(=O)[C@H](CCC(N)=O)NC(=O)[C@H](C)NC(=O)[C@H](CCCNC(=N)N)NC(=O)[C@H](CCCNC(=N)N)NC(=O)[C@H](CO)NC(=O)[C@H](CC(=O)O)NC(=O)[C@H](CC(C)C)NC(=O)[C@H](Cc1ccc(O)cc1)NC(=O)[C@H](CCCCN)NC(=O)[C@H](CO)NC(=O)[C@H](Cc1ccc(O)cc1)NC(=O)[C@H](CC(=O)O)NC(=O)[C@H](CO)NC(=O)[C@@H](NC(=O)[C@H](Cc1ccccc1)NC(=O)[C@@H](NC(=O)CNC(=O)[C@H](Cc1c[nH]cn1)NC(=O)[C@H](CO)NC(=O)[C@@H](N)Cc1c[nH]cn1)[C@@H](C)O)[C@@H](C)O)C(C)C)C(=O)N[C@H](C(=O)N[C@H](C(N)=O)[C@@H](C)O)[C@@H](C)O [PD51],0.03,0.02,,,
HSQGTFTSDYSKYLDELRAYDFVQWLMNT-NH2 [PD27],0.05,0.03,,,
H-HSQGTFTSDYSKYLDSLMAQDFVQWLMST-NH2 [PD22],0.02,0.03,,,
H-HSQGIFFSDYSKYLDSRRAQDFVQWLMNT-NH2 [PD52],0.03,0.02,,,
CC(C)C[C@H](NC(=O)[C@H](CC(C)C)NC(=O)[C@H](CCCCN)NC(=O)[C@H](CO)NC(=O)[C@H](Cc1ccc(O)cc1)NC(=O)[C@H](CC(=O)O)NC(=O)[C@H](CO)NC(=O)[C@H](CC(C)C)NC(=O)[C@H](Cc1ccccc1)NC(=O)[C@@H](NC(=O)CNC(=O)[C@H](CCC(N)=O)NC(=O)[C@@H](CO)NC(=O)[C@@H](N)Cc1c[nH]cn1)[C@@H](C)O)C(=O)N[C@@H](CC(=O)O)C(=O)N[C@@H](CO)C(=O)N[C@@H](CCCNC(=N)N)C(=O)N[C@@H](C)C(=O)N[C@@H](C)C(=O)N[C@@H](CCC(N)=O)C(=O)N[C@@H](CC(=O)O)C(=O)N[C@@H](Cc1ccccc1)C(=O)N[C@H](C(=O)N[C@@H](CCC(N)=O)C(=O)N[C@@H](Cc1c[nH]c2ccccc12)C(=O)N[C@@H](CC(C)C)C(=O)N[C@@H](CC(C)C)C(=O)N[C@@H](CCC(N)=O)C(=O)N[C@H](C(N)=O)[C@@H](C)O)C(C)C [TP552] (H-H[dS]QGTFLSDYSKLLDSRAAQDFVQWLLQT-NH2; N-terminus assumed),,,0.004,0.02,≥ 5
HSQGTFTSDYSKYLDSRMAYDFVQWLMNT-NH2 [PD56],0.08,0.05,,,
HSQGTFTSDYSKYLDSKRAHDFVQWLLNT-NH2 [PD45],0.03,0.02,,,
H-HSQGTFTSDYSKYLDSRRAHDFVQWLLNT-NH2 [PD29],0.02,0.02,1,,
